These results are taken from patent publication US9512090B2, “Tetrazolinone compound and use thereof” (Sumitomo Chemical Company, Limited, priority 2013, dated 2016).

The structures appear in SMILES notation. A value given as a limit tells only on which side of the number the result lay.

The test system of series [1] is cucumber powdery mildew fungus (Sphaerotheca fuliginea). As to the kind of experiment: Test Example 6 and Comparative Test Example: cucumber powdery mildew control by foliar spray. It is filed as in vivo. The note with it: 500 ppm spray on cucumber (SAGAMI HANJIRO); 8 days after inoculation.
For series [2], the system named is common house mosquito (Culex pipiens pallens). As to the kind of experiment: Test Example 12: common house mosquito larvae mortality in treated water. It counts as in vivo. The note with it: active ingredient 3.5 ppm in water; last instar larvae; after 8 days. As to the method: A water dilution containing a surfactant prepared by adjusting so as to contain a predetermined concentration (500 ppm) of any one compound of the present compounds 20, 29, and 79 was used as a test chemical solution.
The above test chemical solution (0.7 mL) was added to 100 mL of deionized water to adjust the concentration of an active ingredient to 3.5 ppm. Twenty (20) heads of last instar larvae of common house mosquito (Culex pipiens pallens) were released in the solution and the number of dead insects was counted after 8 days.
Mortality was determined by the following equation. Mortality (%)=(number of dead insects/number of test insects)×100

For `Cc1ccc(OCc2ccccc2-n2nnn(C)c2=O)cc1` [1-{2-(4-methylphenoxymethyl)phenyl}-4-methyl-1,4-dihydrotetrazol-5-one], in series [1], the “area of lesion spots on the treated plant relative to that on an untreated plant” value is no less than 70%.

As for `COc1ccccc1-c1ccc(OCc2c(OC)cccc2-n2nnn(C)c2=O)c(C)c1` [compound 20], in series [2], the mortality – broadly, the share of the test organisms that died – worked out at 100%.

Turning to `Cc1cc(OCc2c(C)cccc2-n2nnn(C)c2=O)ccc1-c1ccccc1` [compound 29], in series [2], the mortality worked out at 100%.

On to `CCN(c1ccccc1)c1ccc(OCc2c(C)cccc2-n2nnn(C)c2=O)c(C)c1` [compound 79], for which the mortality in series [2] is on record as 100%.
